Consider 19 compounds from article PMC6271756, “Synthesis of Caffeic Acid Amides Bearing 2,3,4,5-Tetra-hydrobenzo[b][1,4]dioxocine Moieties and Their Biological Evaluation as Antitumor Agents” (Molecules, 2014).

One series has as its system HepG2. The experiment in a line: Cell proliferation assay (CCK8), HepG2. In kind it is cell-based. The following applies: Homo sapiens, HepG2; cells incubated with compounds for 24 h; CCK8. How it is done:
(§1) CCK8 is much more convenient and helpful than MTT for analyzing cell proliferation, because it can be reduced to soluble formazan by dehydrogenase in mitochondria and has little toxicity to cells. Cell proliferation was determined using CCK8 dye (Beyotime Inst. Biotech., Nanjing, China) according to the manufacturer's instructions. Briefly, 1–5 × 10^3 cells per well were seeded on a 96-well plate, and grown at 37 °C for 12 h. Subsequently, cells were treated with all synthesized compounds at increasing concentrations in the presence of 10% FBS for 24 h. After addition of 10 μL CCK8 dyeto each well, cells were incubated at 37 °C for 2 h and plates were read on a Victor-V multilabel counter (Perkin-Elmer, Männedorf, Switzerland) using the default […]. Percent inhibition or IC50 values of compounds were calculated by comparison with DMSO-treated control wells.

A further series relates to A431. The experiment in a line: Cell proliferation assay (CCK8), A431. In kind it is cell-based. The following applies: Homo sapiens, A-431, cells incubated with compounds for 24 h. How it is done: as §1
In a further series the target is T1, EGFR (Homo sapiens, UniProt P00533).
T1 construct: EGFR cytoplasmic domain (EGFR-CD, amino acids 645–1186); (His)6 (N); made in house; host or cells: Sf-9 insect cells (baculovirus)
The series is described as follows: EGFR kinase autophosphorylation assay (DELFIA/Time Resolved Fluorometry). In kind it is biochemical. The following applies: enzyme incubated with compounds for 70 min. The procedure: A sequence that encodes (His)6 was located at the 5' upstream to the EGFR sequences. Sf-9 cells were infected for 3 days for protein expression. Sf-9 cell pellets were solubilized at 0 °C in a buffer at pH 7.4 containing 50 mM HEPES, 10 mM NaCl, 1% Triton, 10 μM ammonium molybdate, 100 μM sodium vanadate, 10 μg/mL aprotinin, 10 μg/mL leupeptin, 10 μg/mL pepstatin, and 16 μg/mL benzamidine HCl for 20 min followed by 20 min centrifugation. Crude extract supernatant was passed through an equilibrated Ni-NTA superflow packed column and washed with 10 mM and then 100 mM imidazole to remove nonspecifically bound material. Histidine tagged proteins were eluted with 250 and 500 mM imidazole and dialyzed against 50 mM NaCl, 20 mM HEPES, 10% glycerol, and 1 μg/mL each of aprotinin, leupeptin, and pepstatin for 2 h. The entire purification procedure was performed at 4 °C or on ice.
EGFR kinase assays was set up to assess the level of autophosphorylation based on DELFIA/Time Resolved Fluorometry. […] In each well, 10 μL compound was incubated with 10 μL (5 ng for EGFR) recombinant enzyme (1:80 dilution in 100 mM HEPES) for 10 min at room temperature. Then, 10 μL of 5× buffer (containing 20 mM HEPES, 2 mM MnCl2, 100 μM Na3VO4, and 1 mM DTT) and 20 μL of 0.1 mM ATP-50 mM MgCl2 were added for 1 h. Positive and negative controls were included in each plate by incubation of enzyme with or without ATP-MgCl2.
At the end of incubation, liquid was aspirated, and plates were washed three times with wash buffer. A 75 μL (400 ng) sample of europium labeled anti-phosphotyrosine antibody was added to each well for another 1 h of incubation. After washing, enhancement solution was added and the signal was detected by Victor (Wallac Inc., Männedorf, Switzerland) with excitation at 340 nm and emission at 615 nm. The percentage of autophosphorylation inhibition by the compounds was calculated using the following equation: 100% − [[…]] (1)
The IC50 was obtained from curves of percentage inhibition with eight concentrations of compound.

A further series deals with Hela. The series is described as follows: Cell proliferation assay (CCK8), Hela. In kind it is cell-based. The following applies: Homo sapiens, cells incubated with compounds for 24 h. How it is done: as §1

T1 sequence (P00533 669-1210): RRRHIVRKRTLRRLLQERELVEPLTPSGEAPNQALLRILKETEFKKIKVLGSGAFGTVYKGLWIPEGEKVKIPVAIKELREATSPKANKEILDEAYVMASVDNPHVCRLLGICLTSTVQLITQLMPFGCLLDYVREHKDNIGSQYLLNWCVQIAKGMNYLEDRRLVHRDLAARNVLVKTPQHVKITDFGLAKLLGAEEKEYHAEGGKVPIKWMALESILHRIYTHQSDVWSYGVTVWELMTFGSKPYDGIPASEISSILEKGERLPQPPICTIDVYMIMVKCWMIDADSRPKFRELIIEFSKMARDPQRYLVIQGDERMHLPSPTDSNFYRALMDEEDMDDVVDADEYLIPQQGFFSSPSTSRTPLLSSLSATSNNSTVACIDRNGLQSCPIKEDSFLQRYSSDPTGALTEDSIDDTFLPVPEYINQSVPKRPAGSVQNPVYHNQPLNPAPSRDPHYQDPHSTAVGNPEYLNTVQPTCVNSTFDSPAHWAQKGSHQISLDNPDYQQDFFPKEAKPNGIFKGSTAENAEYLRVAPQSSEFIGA

Turning to `COc1ccc(NC(=O)/C=C/c2ccc3c(c2)OCCCCO3)cc1` [Compound D8, (E)-N-(4-methoxyphenyl)-3-(2,3,4,5-tetrahydrobenzo[b][1,4]dioxocin-8-yl)acrylamide], the melting point fell in the range of 112 to 113 °C. For the same compound, in the series with HepG2, the IC50 stood at 0.95 µM. In addition, the 50% inhibitory concentration (IC50) in the series with A431 came to 7.42 µM. For the same compound, the IC50 at EGFR was 0.85 µM. In addition, in the series with Hela, the half-maximal inhibitory concentration (IC50) was 7.04 µM.

`Cc1cccc(NC(=O)/C=C/c2ccc3c(c2)OCCCCO3)c1` [Compound D12, (E)-3-(2,3,4,5-tetrahydrobenzo[b][1,4]dioxocin-8-yl)-N-m-tolylacrylamide] returned a melting point of 112 to 113 °C. For the same compound, the half-inhibitory concentration (IC50) in the series with HepG2 was found to be 6.28 µM. Further, the IC50 in the series with A431 amounted to 14.2 µM. For the same compound, at EGFR, the IC50 was 12 µM. The half-inhibitory concentration (IC50) in the series with Hela is 10.8 µM.

As for `O=C(/C=C/c1ccc2c(c1)OCCCCO2)Nc1ccccc1Cl` [Compound D11, (E)-N-(2-chlorophenyl)-3-(2,3,4,5-tetrahydrobenzo[b][1,4]dioxocin-8-yl)acrylamide], the melting point was in the range of 127 to 128 °C. In addition, the half-maximal inhibitory concentration (IC50) in the series on HepG2 was 4.94 µM. Also, in the series on A431, the IC50 amounted to 18.9 µM. Moreover, at EGFR, the concentration for half-maximal inhibition (IC50) turned out to be 8.97 µM. The IC50 in the series with Hela stood at 16.7 µM.

Regarding `O=C(O)/C=C/c1ccc2c(c1)OCCCCO2` [C, (E)-3-(2,3,4,5-tetrahydrobenzo[b][1,4]dioxocin-8-yl)acrylic acid], the IC50 was found to be 56 µM in the series on HepG2, 41 µM with A431 and 105 µM in the series on Hela.

Take `O=C(/C=C/c1ccc2c(c1)OCCCCO2)Nc1ccc(Br)cc1F` [Compound D14, (E)-N-(4-bromo-2-fluorophenyl)-3-(2,3,4,5-tetrahydrobenzo[b][1,4]dioxocin-8-yl)acrylamide]: the melting point was 110 to 111 °C. Moreover, in the series with HepG2, the IC50 turned out to be 9.03 µM. In the series on A431, the IC50 is 22.6 µM. Moreover, the IC50 in the series with Hela amounted to 30.8 µM.

Turning to `COc1cc(NC(=O)/C=C/c2ccc3c(c2)OCCCCO3)cc(OC)c1OC` [Compound D6, (E)-3-(2,3,4,5-tetrahydrobenzo[b][1,4]dioxocin-8-yl)-N-(3,4,5-trimethoxyphenyl)acrylamide], the melting point was in the range of 145 to 146 °C. The IC50 in the series with HepG2 worked out at 13.2 µM. Moreover, the 50% inhibitory concentration (IC50) in the series with A431 worked out at 11.7 µM. Further, the IC50 with Hela was 25.7 µM.

On to `O=C(/C=C/c1ccc2c(c1)OCCCCO2)Nc1cccc(F)c1` [Compound D17, (E)-N-(3-fluorophenyl)-3-(2,3,4,5-tetrahydrobenzo[b][1,4]dioxocin-8-yl)acrylamide], for which the melting point was in the range of 116 to 117 °C. Moreover, in the series on HepG2, the half-inhibitory concentration (IC50) worked out at 7.9 µM. In the series on A431, the IC50 worked out at 21.6 µM. Also, the concentration for half-maximal inhibition (IC50) in the series with Hela was 19.5 µM.

As for `O=C(O)/C=C/c1ccc(O)c(O)c1` [Caffeic acid], the IC50 in the series with HepG2 is 225 µM; in the series on A431, 93.5 µM; in the series with Hela, 544 µM.

In turn, `COc1ccc(NC(=O)/C=C/c2ccc3c(c2)OCCCCO3)cc1OC` [Compound D3, (E)-N-(3,4-dimethoxyphenyl)-3-(2,3,4,5-tetrahydrobenzo[b][1,4]dioxocin-8-yl)acrylamide] had a melting point of 171 to 172 °C. For the same compound, the IC50 in the series on HepG2 turned out to be 10.2 µM. The IC50 in the series with A431 worked out at 8.96 µM. For the same compound, the IC50 in the series on Hela worked out at 19.6 µM.

`O=C(/C=C/c1ccc2c(c1)OCCCCO2)NCc1ccccc1F` [Compound D15, (E)-N-(2-fluorobenzyl)-3-(2,3,4,5-tetrahydrobenzo[b][1,4]dioxocin-8-yl)acrylamide] displayed a melting point of 86 to 87 °C. Besides, the half-maximal inhibitory concentration (IC50) in the series on HepG2 came to 1.48 µM. The 50% inhibitory concentration (IC50) with A431 came to 17.8 µM. For the same compound, the half-inhibitory concentration (IC50) on EGFR amounted to 2.18 µM. Further, in the series with Hela, the 50% inhibitory concentration (IC50) came out at 5.15 µM.

Turning to `O=C(/C=C/c1ccc2c(c1)OCCCCO2)Nc1ccccc1[N+](=O)[O-]` [Compound D2, (E)-N-(2-nitrophenyl)-3-(2,3,4,5-tetrahydrobenzo[b][1,4]dioxocin-8-yl)acrylamide], the melting point lay in the range of 119 to 120 °C. In the series with HepG2, the IC50 came to 9.4 µM. In addition, the IC50 in the series with A431 came out at 24.7 µM. Besides, the IC50 in the series on Hela was 28.2 µM.

Compound `O=C(/C=C/c1ccc2c(c1)OCCCCO2)Nc1ccc(Br)cc1` [Compound D16, (E)-N-(4-bromophenyl)-3-(2,3,4,5-tetrahydrobenzo[b][1,4]dioxocin-8-yl)acrylamide] had a melting point of 107 to 108 °C. Further, the 50% inhibitory concentration (IC50) in the series on HepG2 came to 2.38 µM. In addition, the IC50 in the series on A431 turned out to be 7.96 µM. At EGFR, the half-maximal inhibitory concentration (IC50) is 3.52 µM. Further, the concentration for half-maximal inhibition (IC50) in the series on Hela worked out at 9.04 µM.

Compound `COc1cc(NC(=O)/C=C/c2ccc3c(c2)OCCCCO3)cc(OC)c1` [Compound D4, (E)-N-(3,5-dimethoxyphenyl)-3-(2,3,4,5–tetrahydrobenzo[b][1,4]dioxocin-8-yl)acrylamide] showed a melting point of 115 to 116 °C. The concentration for half-maximal inhibition (IC50) in the series with HepG2 is 11.1 µM. Moreover, the IC50 in the series on A431 worked out at 10 µM. In the series with Hela, the IC50 came out at 23.7 µM.

`COc1ccc(OC)c(NC(=O)/C=C/c2ccc3c(c2)OCCCCO3)c1` [Compound D5, (E)-N-(2,5-dimethoxyphenyl)-3-(2,3,4,5-tetrahydrobenzo[b][1,4]dioxocin-8-yl)acrylamide] returned a melting point of 110 to 111 °C. Besides, the concentration for half-maximal inhibition (IC50) with HepG2 turned out to be 10.5 µM. The half-inhibitory concentration (IC50) in the series with A431 was 9.31 µM. For the same compound, in the series with Hela, the concentration for half-maximal inhibition (IC50) was found to be 21.4 µM.

`O=C(/C=C/c1ccc2c(c1)OCCCCO2)Nc1cccc(Cl)c1` [Compound D10, (E)-N-(3-chlorophenyl)-3-(2,3,4,5-tetrahydrobenzo[b][1,4]dioxocin-8-yl)acrylamide] registered a melting point of 109 to 110 °C. The 50% inhibitory concentration (IC50) in the series with HepG2 worked out at 6.87 µM. Besides, the IC50 in the series on A431 was found to be 20 µM. Moreover, at EGFR, the IC50 was 12.4 µM. Moreover, the IC50 in the series on Hela came to 18.5 µM.

In turn, `COc1cccc(NC(=O)/C=C/c2ccc3c(c2)OCCCCO3)c1` [Compound D7, (E)-N-(3-methoxyphenyl)-3-(2,3,4,5-tetrahydrobenzo[b][1,4]dioxocin-8-yl)acrylamide] came in with a melting point of 104 to 105 °C. Besides, the IC50 in the series with HepG2 was determined as 3.16 µM. Besides, the concentration for half-maximal inhibition (IC50) in the series with A431 came out at 12.6 µM. Moreover, the IC50 on EGFR was 6.78 µM. The IC50 in the series with Hela is 8.71 µM.

For the compound `Cc1ccc(Cl)cc1NC(=O)/C=C/c1ccc2c(c1)OCCCCO2` [Compound D13, (E)-N-(5-chloro-2-methylphenyl)-3-(2,3,4,5-tetrahydrobenzo[b][1,4]dioxocin-8-yl)acrylamide], the melting point lay in the range of 107 to 108 °C. Moreover, the concentration for half-maximal inhibition (IC50) in the series on HepG2 is 15.2 µM. Also, the IC50 in the series with A431 amounted to 14.1 µM. The IC50 with Hela was 24.3 µM.

With `C#Cc1cccc(Nc2ncnc3cc(OCCOC)c(OCCOC)cc23)c1` [Erlotinib, reference compound], the IC50 was found to be 0.08 µM with HepG2 and 0.04 µM in the series on A431.

In the case of `O=C(/C=C/c1ccc2c(c1)OCCCCO2)Nc1ccc([N+](=O)[O-])cc1` [Compound D1, (E)-N-(4-nitrophenyl)-3-(2,3,4,5-tetrahydrobenzo[b][1,4]dioxocin-8-yl)acrylamide], the melting point was in the range of 125 to 126 °C. Besides, the IC50 with HepG2 turned out to be 3.47 µM. Besides, the IC50 in the series on A431 was 16.6 µM. Also, the IC50 on EGFR came to 7.25 µM. For the same compound, in the series with Hela, the IC50 worked out at 13.6 µM.

What is called IC50 is the point on the concentration scale where inhibition reaches its midpoint. The term melting point denotes the temperature, or range, at which the solid turns liquid.
